Earlier results, collected in patent US20180133221A1, “ADMINISTRATION OF UBIQUITIN-ACTIVATING ENZYME INHIBITOR AND CHEMOTHERAPEUTIC AGENTS” (Millennium Pharmaceuticals, Inc., priority 2014, published 2018).

Key:
[1] = system: mouse acute myeloid leukemia (AML model); settings: mouse AML model (Xu et al., 2010); cited from earlier work
[2] = system: leukemia and myeloma cell lines; settings: leukemia and myeloma cell lines (Xu et al., 2010); cited from earlier work

O=C1NN(c2ccc(F)c(Cl)c2)C(=O)/C1=C\c1ccc([N+](=O)[O-])o1 [PYZD-4409]
anti-tumor activity [1]: demonstrated anti-tumor activity
cell death [2]: induced cell death
